Source: patent US9828338B2, “Carbamate derivatives of lactam based N-acylethanolamine acid amidase (NAAA) inhibitors” (The Regents of the University of California, priority 2013, dated 2017)
Entries after “also recorded” stand apart in the source; their conditions may differ. Where two headings read alike, the source gives them in different places.

Legend:
mice [1] = assay: Carrageenan-induced inflammation (paw edema, heat hyperalgesia); assay type: in vivo; details: compound 5 3-30 mg/kg p.o.
mice [2] = assay: Carrageenan-induced lung inflammation; assay type: in vivo; details: carrageenan 2%
Description: The chest was carefully opened and the pleural cavity was rinsed with 1 mL of saline solution containing heparin (5 U/mL). The exudate and washing solution were removed by aspiration and the total volume of the fluid was measured. Any exudate that was contaminated with blood was discarded. The amount of exudate was calculated by subtracting the volume of washing fluid injected from the total volume recovered.

Rat AC (r-AC) = target: T1, Rat AC (r-AC) (Rattus norvegicus, UniProt Q6P7S1); assay: Rat AC (r-AC) assay; assay type: biochemical; details: for IC50: read-out: r-AC UPLC/MS assay IC50; for inhibition at 10 µM: read-out: r-AC UPLC/MS assay % inhib.
T1 construct: V5 (C); His (C); made in house; host or cells: HEK293 cells transfected with pEF6-rAC-V5/His, G418 selected; soluble lysosomal fraction
T1 sequence (Q6P7S1 21-394): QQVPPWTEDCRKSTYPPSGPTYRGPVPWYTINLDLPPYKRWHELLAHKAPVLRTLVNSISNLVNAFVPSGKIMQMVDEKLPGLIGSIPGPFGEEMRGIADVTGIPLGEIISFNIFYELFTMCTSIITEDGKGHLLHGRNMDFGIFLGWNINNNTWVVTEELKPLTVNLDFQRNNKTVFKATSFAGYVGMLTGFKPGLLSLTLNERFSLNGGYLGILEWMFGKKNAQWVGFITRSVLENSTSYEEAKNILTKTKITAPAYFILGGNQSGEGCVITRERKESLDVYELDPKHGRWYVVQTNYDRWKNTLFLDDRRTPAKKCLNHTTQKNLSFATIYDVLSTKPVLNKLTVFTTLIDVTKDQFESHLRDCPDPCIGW
Description: The selectivity of selected compounds versus Acid Ceramidase (AC) was determined.
Rat AC (r-AC) was cloned from a brain cDNA library using primers based on the sequence obtained from the National Center for Biotechnology Information (NCBI) database: 5′rAC (5′-[…]-3′) (SEQ ID NO:1) and 3′rAC (5′-[…]-3′) (SEQ ID NO:2). The PCR (High Fidelity PCR Master, Roche) product was subcloned into a pEF6-V5/His vector (Invitrogen) to construct a mammalian expression vector encoding V5/His-tagged rat AC. HEK293 cells were transfected with pEF6-rAC-V5/His using Super-Fect reagent (Qiagen) and screened with G418 (0.3 mg/mL). Cells were suspended in 20 mM Tris HCl (pH 7.5) containing 0.32M sucrose, sonicated and centrifuged at 800×g for 15 minutes at 4° C. The supernatants were centrifuged again at 12,000×g for 30 minutes at 4° C. The pellets were suspended in phosphate-buffered saline (PBS) and subjected to 2 freeze-thaw cycles at −80° C. The suspensions were centrifuged at 105,000×g for 1 hour at 4° C. The supernatants containing recombinant AC were kept at −80° C. until use. Protein concentration was measured using the bicinchoninic acid (BCA) assay (Pierce). Recombinant rat AC (50 μg) was preincubated with inhibitors (final DMSO concentration 1%) in assay buffer (100 mM sodium phosphate, 0.1% Nonidet P-40, 150 mM NaCl, 3 mM DTT, 100 mM sodium citrate, pH 4.5) for 30 minutes at 37° C. Reactions were started by the addition of 100 μM N-lauroyl ceramide (Nu-Chek Prep, Elysian, Minn.) and carried on for 30 minutes at 37° C. Reactions were stopped by addition of a mixture of chloroform/methanol (2:1, vol/vol) containing 1 nmol of heptadecanoic acid (HDA; NuChek Prep). The organic phases were collected, dried under N2, and analyzed by LC-MS in the negative-ion mode using […] (HDA) as internal standard (m/z=199 for lauric acid, m/z=269 for HDA). […]. The column temperature was 50° C. Electrospray ionization (ESI) was in the negative mode, capillary voltage as 4 kV, and fragmentor voltage was 100 V. N2 was used as drying gas at a flow rate of 13 L/min and a temperature of 350° C. Nebulizer pressure was set at 60 psi. We monitored [M-H]− in the selected-ion monitoring (SIM) mode using HDA as internal standard. Calibration curves were generated using commercial lauric acid (Nu-Chek Prep; m/z=199).

mice [3] = assay: LPS-induced inflammation (lung); details: for neutrophil migration/infiltration into lung tissue: 6 h and 24 h
Description: Mice were anesthetized with ketamine and xylazine (100 and 10 mg/kg, respectively), and were subjected to intranasal instillation of LPS (1 μg/μL) or vehicle (saline 0.9%); the volume used was 1 μL/g body weight. In order to avoid drawing, the weight of each animal was divided by three; therefore each mouse received the respective volume of LPS or vehicle. Ex: animal 1 (24 g) received 3 times an intranasal instillation of 8 μL of LPS solution or vehicle.
The bronchoalveolar lavage and lung samples were collected 6 h or 24 h after the induction of inflammation.

r-NAAA = target: T2, r-NAAA (Rattus norvegicus, UniProt Q5KTC7); assay: UPLC/MS r-NAAA assay; assay type: biochemical
T2 construct: Lysosomal NAAA protein preparation was obtained by homogenizing male Sprague-Dawley rat lungs; tissue Charles River (animals); host or cells: male Sprague-Dawley rat lung, soluble lysosomal fraction
T2 sequence (Q5KTC7 34-362): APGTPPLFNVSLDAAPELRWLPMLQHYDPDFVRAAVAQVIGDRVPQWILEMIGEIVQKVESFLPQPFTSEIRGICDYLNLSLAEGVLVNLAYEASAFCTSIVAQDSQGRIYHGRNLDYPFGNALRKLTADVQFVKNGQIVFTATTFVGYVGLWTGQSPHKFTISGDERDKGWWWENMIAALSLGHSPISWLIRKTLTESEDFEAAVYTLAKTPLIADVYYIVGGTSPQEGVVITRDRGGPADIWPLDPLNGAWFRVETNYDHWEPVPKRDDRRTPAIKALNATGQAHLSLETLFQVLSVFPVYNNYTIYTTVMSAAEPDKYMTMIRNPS

human NAAA = target: T3, human NAAA (Homo sapiens, UniProt Q02083); assay: Fluorogenic h-NAAA assay; assay type: biochemical
T3 construct: made in house; host or cells: HEK293 cells, stably transfected; soluble lysosomal fraction used as enzyme source
T3 sequence (Q02083 29-359): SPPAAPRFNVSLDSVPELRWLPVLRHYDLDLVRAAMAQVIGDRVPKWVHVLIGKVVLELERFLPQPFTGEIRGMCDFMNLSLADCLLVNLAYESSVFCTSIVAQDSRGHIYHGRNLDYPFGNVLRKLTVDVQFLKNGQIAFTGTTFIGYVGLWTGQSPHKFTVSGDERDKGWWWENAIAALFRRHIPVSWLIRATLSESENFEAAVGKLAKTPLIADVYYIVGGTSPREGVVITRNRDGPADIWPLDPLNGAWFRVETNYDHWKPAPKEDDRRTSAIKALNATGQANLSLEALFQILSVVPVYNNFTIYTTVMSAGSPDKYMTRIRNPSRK
Description: Hek293 cells stably transfected with the human NAAA coding sequence cloned from a human spleen cDNA library were used as enzyme source. Recombinant HEK-hNAAA pellets were resuspended in homogenizing buffer, and sonicated. Samples were centrifuged at 800×g for 15 min at 4° C. and the resultant supernatants were then ultracentrifuged at 12,000×g for 30 min at 4° C. The pellets were resuspended in PBS pH 7.4 on ice and subjected to a freeze/thaw cycle at −80° C. The suspension was finally centrifuged at 105,000×g for 1 h at 4° C. Protein concentration was measured and samples aliquoted and stored at −80° C. until use.
The assay was run in Optiplate 96-wells black plates, in a total reaction volume of 200 μL. NAAA protein preparation (4.0 μg) was pre-incubated for 10 min with various concentrations of test compounds or vehicle control (5% DMSO) in 100 mM citrate/phosphate buffer (pH 4.5) containing 3.0 mM DTT, 0.1% Triton X-100, 0.05% BSA, 150 mM NaCl. N-(4-methyl-2-oxo-chromen-7-yl)-hexadecanamide was used as a substrate (5.0 μM) and the reaction carried over for 30 min at 37° C. The samples were then read in a Perkin Elmer Envision plate reader using an excitation wavelength of 360 nm and emission 460 nm. IC50 values were calculated by non-linear regression analysis of log [concentration]/inhibition curves using GraphPad Prism 5 (GraphPad Software Inc., CA—USA) applying a standard slope curve fitting.

[4] = compound 5 30 mg/kg p.o., dexamethasone 0.5 mg/kg i.p.

For O=C(N[C@H]1CNC1=O)OCCCCC1CCCCC1 [Example 5, 4-Cyclohexylbutyl-N-[(3S)-2-oxoazetidin-3-yl]-carbamate], the heat hyperalgesia (mice [1]) was “reduced; also recorded: markedly attenuated”, the paw edema (mice [1]) was “reduced; also recorded: markedly attenuated” and the “TNF-alpha concentration in pulmonary exudate” value (mice [2]; [4]) was “normalizes”. The “number of leukocytes (neutrophils) in the pulmonary exudate (FACS)” value (mice [2]; [4]) was “normalized”, the “myeloperoxidase (MPO) activity in lung tissue” value (mice [2]; compound 5 0.1-30 mg/kg p.o., dexamethasone 0.5 mg/kg i.p.) was “normalizes; also recorded: dose-dependently normalized” and the “increase of TNF-α in the pulmonary exudate” value (mice [2]; compound 5 0.1-30 mg/kg po) was “dose-dependently normalized”. The IC50 (Rat AC (r-AC)) was 12.5 µM, the “LPS induced increase of IL-6, TNF-α and MIP-2/CXCL2 in tissue and BAL” value (mice [3]; 30 mg/kg po, at 6 hr) was “significantly reduced” and the “neutrophil migration/infiltration into lung tissue” value (mice [3]; LPS, 30 mg/kg po, listed as Compound 5, 30 mg/kg) was “prevented”. The “neutrophil migration/infiltration into lung tissue” value (mice [3]; LPS, 30 mg/kg po, listed as compound 5, 30 mg/kg) was “prevents” and the “production of cytokines/chemokines in BAL and lung tissue” value (mice [3]; LPS, compound 5 30 mg/kg p.o., 30 min) was “prevents”.
O=C(N[C@H]1CNC1=O)OCc1ccc(C2CCCCC2)cc1 [Example 31, (4-Cyclohexylphenyl)-methyl-N-[(3S)-2-oxoazetidin-3-yl]-carbamate] showed an IC50 (r-NAAA) of 0.028 µM and an IC50 (Rat AC (r-AC)) of 21.7 µM.
Compound C[C@@H]1NC(=O)[C@H]1NC(=O)OCc1ccc(-c2ccccc2)cc1 [Example 73, (4-Phenylphenyl)-methyl-N-[(2S,3S)-2-methyl-4-oxo-azetidin-3-yl]-carbamate] has an IC50 (r-NAAA) of 0.9 µM and an inhibition at 10 µM (Rat AC (r-AC)) of 20%.
O=C(N[C@H]1CNC1=O)OCc1ccc(-c2ccccc2)cc1 [Example 17, (4-Phenylphenyl)-methyl-N-[(3S)-2-oxoazetidin-3-yl]-carbamate] showed an IC50 (r-NAAA) of 0.31 µM and an IC50 (Rat AC (r-AC)) of 20.1 µM.
Compound C[C@@H]1NC(=O)[C@H]1NC(=O)OCCCCC1CCCCC1 [Example 72, 4-Cyclohexylbutyl-N-[(2S,3S)-2-methyl-4-oxo-azetidin-3-yl]-carbamate] has an IC50 (r-NAAA) of 0.05 µM and an inhibition at 10 µM (Rat AC (r-AC); @ 10 μM) of 20%.
C[C@@H]1NC(=O)[C@H]1NC(=O)OCc1ccc(C2CCCCC2)cc1 [Example 74, (4-Cyclohexylphenyl)-methyl-N-[(2S,3S)-2-methyl-4-oxo-azetidin-3-yl]-carbamate] showed an IC50 (r-NAAA) of 0.046 µM, an IC50 (human NAAA) of 0.107 µM and an inhibition at 10 µM (Rat AC (r-AC)) of 20%.
C[C@H]1NC(=O)[C@H]1NC(=O)OCCCCC1CCCCC1 [Example 76, 4-Cyclohexylbutyl-N-[(2R,3S)-2-methyl-4-oxo-azetidin-3-yl]-carbamate] was tested, and the IC50 (r-NAAA) was 87 µM and the inhibition at 10 µM (Rat AC (r-AC); @ 10 μM) was 5%.
